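48-hour exposure; five concentrations; linearly interpolated endpoints. GI50 is the concentration that inhibits growth by half.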 Active and inactive are the calls of the source. No stated cut-off is given here; in the data, active = GI50 up to about 1.1 µM and inactive = higher.
Tests used:
Assay in all cases: DTP human tumour cell line panel, 48 h
Malme-3M = system: Malme-3M
TK-10 = system: TK-10
DMS-114 = system: DMS-114
SR = system: SR
SF-539 = system: SF-539
ACHN = system: ACHN
RPMI-8226 = system: RPMI-8226
SF-268 = system: SF-268
COLO 205 = system: COLO 205
A498 = system: A498
HOP-92 = system: HOP-92
UACC-257 = system: UACC-257
LOX IMVI = system: LOX IMVI
M14 = system: M14
DMS-273 = system: DMS-273
SK-MEL-28 = system: SK-MEL-28
786-0 = system: 786-0
M19-MEL = system: M19-MEL
SNB-19 = system: SNB-19
SW-620 = system: SW-620
A549 = system: A549
CAKI-1 = system: CAKI-1
NCI-H522 = system: NCI-H522
HOP-18 = system: HOP-18
K562 = system: K562
NCI-H23 = system: NCI-H23
SF-295 = system: SF-295
HOP-62 = system: HOP-62
RXF 393 = system: RXF 393
HCC 2998 = system: HCC 2998
NCI-H226 = system: NCI-H226
SNB-75 = system: SNB-75
OVCAR-3 = system: OVCAR-3
KM12 = system: KM12
MOLT-4 = system: MOLT-4
UO-31 = system: UO-31
HCT-116 = system: HCT-116
NCI-H460 = system: NCI-H460
DLD-1 = system: DLD-1
OVCAR-8 = system: OVCAR-8
KM-20L2 = system: KM-20L2
SN12C = system: SN12C
EKVX = system: EKVX
IGROV-1 = system: IGROV-1
SNB-78 = system: SNB-78
HT-29 = system: HT-29
HL-60 = system: HL-60
UACC-62 = system: UACC-62
SK-OV-3 = system: SK-OV-3
XF498 = system: XF498
HCT-15 = system: HCT-15
OVCAR-4 = system: OVCAR-4
SK-MEL-5 = system: SK-MEL-5
LXFL 529 = system: LXFL 529
U-251 = system: U-251
CCRF-CEM = system: CCRF-CEM
SK-MEL-2 = system: SK-MEL-2
OVCAR-5 = system: OVCAR-5
RXF 631 = system: RXF 631

CNC(=S)/N=C(\N)N(C)C
GI50 (Malme-3M): > 100 µM (inactive)
GI50 (TK-10): > 100 µM (inactive)
GI50 (DMS-114): > 100 µM (inactive)
GI50 (SR): > 100 µM (inactive)
GI50 (SF-539): > 100 µM (inactive)
GI50 (ACHN): > 100 µM (inactive)
GI50 (RPMI-8226): > 100 µM (inactive)
GI50 (SF-268): > 100 µM (inactive)
GI50 (COLO 205): > 100 µM (inactive)
GI50 (A498): > 100 µM (inactive)
GI50 (HOP-92): > 100 µM (inactive)
GI50 (UACC-257): > 10 µM (inactive)
GI50 (LOX IMVI): > 100 µM (inactive)
GI50 (M14): > 100 µM (inactive)
GI50 (DMS-273): > 100 µM (inactive)
GI50 (SK-MEL-28): > 100 µM (inactive)
GI50 (786-0): > 100 µM (inactive)
GI50 (M19-MEL): > 100 µM (inactive)
GI50 (SNB-19): > 100 µM (inactive)
GI50 (SW-620): > 100 µM (inactive)
GI50 (A549): > 100 µM (inactive)
GI50 (CAKI-1): > 100 µM (inactive)
GI50 (NCI-H522): > 100 µM (inactive)
GI50 (HOP-18): > 100 µM (inactive)
GI50 (K562): > 100 µM (inactive)
GI50 (NCI-H23): > 10 µM (inactive)
GI50 (SF-295): > 100 µM (inactive)
GI50 (HOP-62): > 100 µM (inactive)
GI50 (RXF 393): > 100 µM (inactive)
GI50 (HCC 2998): > 100 µM (inactive)
GI50 (NCI-H226): > 100 µM (inactive)
GI50 (SNB-75): > 100 µM (inactive)
GI50 (OVCAR-3): > 100 µM (inactive)
GI50 (KM12): > 100 µM (inactive)
GI50 (MOLT-4): > 100 µM (inactive)
GI50 (UO-31): > 100 µM (inactive)
GI50 (HCT-116): > 100 µM (inactive)
GI50 (NCI-H460): > 100 µM (inactive)
GI50 (DLD-1): > 100 µM (inactive)
GI50 (OVCAR-8): > 100 µM (inactive)
GI50 (KM-20L2): > 100 µM (inactive)
GI50 (SN12C): > 100 µM (inactive)
GI50 (EKVX): > 100 µM (inactive)
GI50 (IGROV-1): > 100 µM (inactive)
GI50 (SNB-78): > 100 µM (inactive)
GI50 (HT-29): > 100 µM (inactive)
GI50 (HL-60): > 100 µM (inactive)
GI50 (UACC-62): > 100 µM (inactive)
GI50 (SK-OV-3): > 100 µM (inactive)
GI50 (XF498): > 100 µM (inactive)
GI50 (HCT-15): > 100 µM
GI50 (OVCAR-4): > 10 µM (inactive)
GI50 (SK-MEL-5): > 100 µM (inactive)
GI50 (LXFL 529): > 100 µM (inactive)
GI50 (U-251): > 100 µM (inactive)

CCC1(CN(C)C)CC/C(=C\c2ccc(OC)cc2)C1=O (stereo not given)
GI50 (Malme-3M): > 100 µM (inactive)
GI50 (TK-10): > 100 µM (inactive)
GI50 (DMS-114): 54.1 µM (inactive)
GI50 (SF-539): > 100 µM (inactive)
GI50 (ACHN): > 100 µM (inactive)
GI50 (RPMI-8226): 17.4 µM (inactive)
GI50 (SF-268): > 100 µM (inactive)
GI50 (COLO 205): 80.7 µM (inactive)
GI50 (A498): 84.1 µM (inactive)
GI50 (HOP-92): > 100 µM (inactive)
GI50 (UACC-257): 89.3 µM (inactive)
GI50 (LOX IMVI): > 100 µM (inactive)
GI50 (M14): > 100 µM (inactive)
GI50 (DMS-273): > 100 µM (inactive)
GI50 (SK-MEL-28): > 100 µM (inactive)
GI50 (786-0): > 100 µM (inactive)
GI50 (M19-MEL): > 100 µM (inactive)
GI50 (SNB-19): > 100 µM (inactive)
GI50 (SW-620): > 100 µM (inactive)
GI50 (A549): > 100 µM (inactive)
GI50 (CAKI-1): > 100 µM (inactive)
GI50 (NCI-H522): 31.5 µM (inactive)
GI50 (HOP-18): > 100 µM (inactive)
GI50 (K562): 40.9 µM (inactive)
GI50 (NCI-H23): > 100 µM (inactive)
GI50 (SF-295): > 100 µM (inactive)
GI50 (HOP-62): > 100 µM (inactive)
GI50 (RXF 393): > 100 µM (inactive)
GI50 (HCC 2998): > 100 µM (inactive)
GI50 (NCI-H226): > 100 µM (inactive)
GI50 (SNB-75): > 100 µM (inactive)
GI50 (OVCAR-3): > 100 µM (inactive)
GI50 (KM12): > 100 µM (inactive)
GI50 (MOLT-4): 3.14 µM (inactive)
GI50 (CCRF-CEM): 30 µM (inactive)
GI50 (UO-31): > 100 µM (inactive)
GI50 (HCT-116): 93.1 µM (inactive)
GI50 (NCI-H460): > 100 µM (inactive)
GI50 (SK-MEL-2): > 100 µM (inactive)
GI50 (DLD-1): 58.3 µM (inactive)
GI50 (OVCAR-8): > 100 µM (inactive)
GI50 (KM-20L2): > 100 µM (inactive)
GI50 (SN12C): > 100 µM (inactive)
GI50 (OVCAR-5): > 100 µM (inactive)
GI50 (EKVX): > 100 µM (inactive)
GI50 (IGROV-1): > 100 µM (inactive)
GI50 (SNB-78): > 100 µM (inactive)
GI50 (HT-29): 44.9 µM (inactive)
GI50 (UACC-62): > 100 µM (inactive)
GI50 (HCT-15): 23.5 µM
GI50 (OVCAR-4): > 100 µM (inactive)
GI50 (SK-MEL-5): 58.6 µM (inactive)
GI50 (LXFL 529): 94 µM (inactive)
GI50 (RXF 631): 62.7 µM (inactive)
GI50 (U-251): > 100 µM (inactive)

Reference: ChEMBL document CHEMBL1201862, “PubChem BioAssay data set” (2004)
